This note sets out measurements from publication PMC11811597, “Phenomics‐Based Discovery of Novel Orthosteric Choline Kinase Inhibitors” (Angewandte Chemie (International Ed. in English), 2025).

The assay concerns the target T1, EHMT2 (G9a) (Homo sapiens, UniProt Q96KQ7).
T1 sequence (Q96KQ7 1-1210): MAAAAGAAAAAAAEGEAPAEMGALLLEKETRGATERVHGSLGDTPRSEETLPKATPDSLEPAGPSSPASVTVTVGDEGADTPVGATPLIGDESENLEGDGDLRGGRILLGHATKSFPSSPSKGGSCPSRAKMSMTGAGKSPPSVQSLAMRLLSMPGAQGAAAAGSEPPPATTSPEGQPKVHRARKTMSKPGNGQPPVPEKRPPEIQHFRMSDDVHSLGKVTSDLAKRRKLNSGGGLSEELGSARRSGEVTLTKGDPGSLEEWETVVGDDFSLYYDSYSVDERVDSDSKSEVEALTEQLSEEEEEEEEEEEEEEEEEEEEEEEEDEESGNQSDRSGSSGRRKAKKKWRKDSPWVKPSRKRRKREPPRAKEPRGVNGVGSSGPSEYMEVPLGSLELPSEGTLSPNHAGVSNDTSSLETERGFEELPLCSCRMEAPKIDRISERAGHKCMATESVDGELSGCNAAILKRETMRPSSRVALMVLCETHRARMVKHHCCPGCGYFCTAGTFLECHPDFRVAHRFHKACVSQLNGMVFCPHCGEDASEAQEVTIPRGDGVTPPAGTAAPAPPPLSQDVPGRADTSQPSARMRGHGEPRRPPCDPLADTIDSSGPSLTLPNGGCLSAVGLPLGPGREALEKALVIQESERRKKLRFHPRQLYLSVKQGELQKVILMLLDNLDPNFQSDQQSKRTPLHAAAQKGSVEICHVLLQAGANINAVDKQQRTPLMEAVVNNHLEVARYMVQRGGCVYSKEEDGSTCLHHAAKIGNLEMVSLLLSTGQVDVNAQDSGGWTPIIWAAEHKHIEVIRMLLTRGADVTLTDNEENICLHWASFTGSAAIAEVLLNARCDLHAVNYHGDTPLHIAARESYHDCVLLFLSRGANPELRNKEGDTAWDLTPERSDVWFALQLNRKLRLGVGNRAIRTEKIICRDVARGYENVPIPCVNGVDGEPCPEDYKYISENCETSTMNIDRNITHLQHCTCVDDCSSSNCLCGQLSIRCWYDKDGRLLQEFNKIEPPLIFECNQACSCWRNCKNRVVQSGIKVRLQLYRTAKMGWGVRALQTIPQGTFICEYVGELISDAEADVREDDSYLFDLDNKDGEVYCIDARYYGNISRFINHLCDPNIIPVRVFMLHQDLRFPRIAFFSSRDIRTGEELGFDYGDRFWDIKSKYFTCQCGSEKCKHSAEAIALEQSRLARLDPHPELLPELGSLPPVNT
As to the kind of experiment: Competitive affinity-based chemoproteomics (UNC0965 matrix), PBMC cell extract. It counts as binding. Set-up: endogenous in cells. The following applies: 20 µM competitor. Here is the method: described.[2] Lysates were precleared with bead slurry (100 μL) for 30 min at 4 °C and then treated with UNC0638 or UNC0737 (20 μM) or DMSO control for 30 min at 4 °C followed by incubation with affinity matrix for 2 h at 4 °C. Affinity matrices were washed with buffer A (5 mL) and proteins eluted with 100 μL of 2x Laemmli sample buffer, 100 mM DTT, in PBS and heating for 10 min at 90 °C.
Eluents (70 µL) were diluted in 0.1 M Tris (pH 7.8) to 200 µL, reduced with 5 mM DTT for 30 min at RT, and alkylated with 20 mM iodoacetamide for 30 min at RT in the dark. Proteins were precipitated by sequential addition of MeOH (600 µL), CHCl3 (150 µL) and H2O (450 µL), pelleted (17,000 × g, 5 min), washed with further MeOH (2 × 600 µL), and re-pelleted. Air dried pellets were resuspended in 50 μL 6 M urea (pH 7.8) by vortexing and then diluted with 250 μL H2O before adding 1 µg trypsin for overnight incubation at 37 °C. The digests were acidified with FA (1% v/v final concentration), desalted using SOLA HRP SPE Cartridges (Thermo Fisher), eluted with 69% v/v MeCN, 0.1% v/v FA in H2O (600 μL) and dried in vacuo. Dried peptides were stored at -20 °C before resuspension in 2% v/v MeCN, 0.1% v/v FA in H2O (20 μL) for LC-MS/MS analysis.
LC-MS/MS Data Acquisition
Digested samples were analysed by nano-UPLC–MS/MS using a Dionex Ultimate 3000 nano UPLC fitted with an EASY spray column (75 μm × 500 mm, 2 μm particle size, Thermo Scientific), coupled to an Orbitrap Q Exactive instrument. […]
Raw data was processed using MaxQuant[3] version 2.0.1.0 and the reference complete human proteome FASTA file (UniProt, downloaded 05.08.21). Label Free Quantification (LFQ) and Match Between Runs were selected; Cysteine carbamidomethylation was selected as a fixed modification, and methionine oxidation and asparagine deamidation as variable modifications. Default settings for identification and quantification were used. […]
mode selected for both identification and quantification of proteins (razor peptides are uniquely assigned to protein groups and not to individual proteins).

Each structure is given as a SMILES string.

As for `COc1cc2c(NC3CCN(C(C)C)CC3)nc(C3CCCCC3)nc2cc1OCCCN1CCCC1` [UNC0638], the “EHMT2 (G9a) binding to the matrix” value is “reduced binding to the matrix”.
